Common to all, as to format: in vivo, BALB/c ByJ mice
Test [1] concerns LACK-sensitized and challenged mice. Description: LACK-induced asthma model: LACK-specific IgE in sera. The note with it: therapeutic. The protocol:
(§1) An example in vivo of the biological activity of two representative compounds of the invention is presented here. Using a mouse model of allergic asthma previously published (described in Julia et al. Immunity. 2002 February; 16(2):271-83), we aimed to investigate whether i.p. administrations of the synthetic molecules OM-174-DP and OM-174-MP-PD would inhibit airway inflammation in LACK-sensitized and challenged mice. To this goal, mice were treated either all along asthma induction (prophylactic model) or therapeutically (i.e. three times after animals have been sensitized to the allergen, the protein LACK). As read-outs, eosinophils were enumerated in bronchoalveolar lavages (BAL), and the well known markers of allergic asthma, namely the Th2 cytokines IL-4, IL-5, and IL-13 were quantified from the lungs. Moreover the level of plasmatic IgE was also reported.
(§2) OM-174-DP (i.p.)-treated LACK-sensitized and challenged mice (6 mice) Treatment and Schedule with Test or Control Article Experiment started at day 0. On days 0, 2, 3, 4, 7, 9, 10 11, and 12, mice of groups C, and D were treated i.p. with synthetic OM-174-DP (compound 1b) and OM-174-MP-PD (compound 19) respectively at the dose of 1 mg/Kg (20 μg per mouse). Mice of groups E were treated therapeutically i.p. on days 15, 17 and 19 at the dose of 1 mg/Kg (20 μg per mouse).
(§3) On day 1 and day 8, mice were sensitized i.p. with LACK/Alum. From day 16 to day 20, all the groups except group A mice were challenged with aerosols of a solution of LACK (0.15%). Group A received a saline solution (NaCl 0.9%) (group A) for 40 minutes instead.
To analyze specific IgE contents, mice of groups A, B, and G were bled by heart puncture two days after the last aerosol, and sera were prepared. LACK-specific IgE were measured by ELISA.

Test [2] shares this test system. Description: LACK-induced asthma model: eosinophils in bronchoalveolar lavages. Conditions: for Eosino × 10^6, Mean ± SEM / Eosino × 10^6, individual mice: BAL; for Eosino × 10^6, individual mice: 1 mg/kg. The protocol:
as §1, §2, §3
For all the animals, Broncho-alveolar lavages (BAL) were performed. Two days after the last aerosol challenge, mice were bled and a canula was inserted into their trachea. Lungs were washed 3 times with 1 ml of warmed PBS. Cells were washed with PBS, and red blood cells were lysed using a red blood cell lysis buffer. Cells were further washed in PBS and counted. For differential BAL cell counts, cytospin preparations were made and stained with Wright/Giemsa. At least 400 cells were scored for each slide, and the numbers of lymphocytes, neutrophils, eosinophils, and macrophages/DC/pneumocytes (scored as other mononuclear cells) were determined by microscopic examination. Only eosinophilia is reported here.

For test [3] the test system is unchanged. Description: LACK-induced asthma model: pulmonary cytokines. Here is the method: as §1, §2, §3
To analyze pulmonary cytokine contents, lungs were harvested and left lungs were used to prepare protein extracts. 400 μl were recovered for each left lung. Cytokines (IL-4 and IL-13 in a first series of analyses, and then IL-5 and IFN-γ) were measured by multiplex analysis using FACSArray. The results, normalized for the protein content, are presented in pg/ml.

The mark [4] stands for this setting: prophylactic, i.p. 1 mg/Kg on days 0, 2, 3, 4, 7, 9, 10, 11, 12.
Setting [5] is: therapeutic, i.p. 1 mg/Kg on days 15, 17, 19.
Where [6] appears, read: prophylactic, i.p. 1 mg/Kg, 1 mg/kg.
Setting [7] is: therapeutic, i.p. 1 mg/Kg on days 15, 17, 19, 1 mg/kg.

The structures appear in SMILES notation. Values joined by “and” are separate entries in the source; they are usually repeats but may differ in a detail not shown here. Identical values can stand only once. Marks after values point to notes of the source that are not given here.

Turning to `CCCCCCCCCCCC(=O)O[C@H](CCCCCCCCCCC)CC(=O)NC1C(OCC2OC(OP(=O)(O)O)C(NC(=O)C[C@H](O)CCCCCCCCCCC)C(O)C2O)OC(CO)C(OP(=O)(O)O)C1O` (stereo partly drawn) [compound 1b, 2-Deoxy-6-O-[2-deoxy-4-O-(dihydroxyphosphoryl)-2-[(R)-3-dodecanoyloxytetradecanoylamino]-β-D-glucopyranosyl]-2-[(R)-3-hydroxytetradecanoylamino]-α-D-glucopyranosyl dihydrogenophosphate], the “Mean IgE” value in test [1] (sera, i.p. 1 mg/Kg on days 15, 17, 19) is recorded as 224.56* ng/ml. In addition, in test [1] (sera, i.p. 1 mg/Kg on days 15, 17, 19, 1 mg/kg), the “LACK-specific IgE, individual mice” value was 188 ng/mL and 159 ng/mL and 94 ng/mL and 382 ng/mL and 395 ng/mL and 129 ng/mL. For the same compound, the “fold less LACK-specific IgE compared to untreated LACK challenged mice” value in test [1] is 2.6 fold. In test [2] (setting [4]), the “Eosino × 10^6, Mean ± SEM” value was 109781 ± 139453 × 10^6; the “Eosino × 10^6, individual mice” value was 75359 × 10^6 and 385612 × 10^6 and 33412 × 10^6 and 54158 × 10^6 and 105352 × 10^6 and 4792 × 10^6. In test [2] (setting [5]), the “Eosino × 10^6, Mean ± SEM” value is listed as 13923 ± 7362 × 10^6; the “Eosino × 10^6, individual mice” value is 16744 × 10^6 and 3802 × 10^6 and 7411 × 10^6 and 21739 × 10^6 and 12500 × 10^6 and 21343 × 10^6. The “times less BAL eosinophilia compared to positive asthmatic group (B)” value in test [2] (prophylactic) was “about 8 times”. Further, the “factor of decrease of eosinophil count compared to group B” value in test [2] (therapeutic, three times) turned out to be 64. Also, in test [3] (prophylactic), the “fold decrease of IL-4 in lungs compared to group B” value is recorded as 6 fold and the “fold reduction of IL-13 compared to asthmatic mice” value was found to be 4 fold. Moreover, in test [3] (prophylactic, i.p. 1 mg/Kg), the “Mean IL13” value was 13.40* pg/ml and the “Mean IL-4” value was 1.50** pg/ml. In addition, in test [3] (setting [6]), the “IL13 in lungs, individual mice” value is 8.39 pg/mL and 25.39 pg/mL and 8.2 pg/mL and 24.29 pg/mL and 12.52 pg/mL and 1.59 pg/mL; the “IL-4 in lungs, individual mice” value is 1.1 pg/mL and 3.33 pg/mL and 0.71 pg/mL and 2.43 pg/mL and 1.23 pg/mL and 0.17 pg/mL. In test [3] (therapeutic), the “fold reduction in IL-4 compared to group B” value amounted to 4 fold, the “fold reduction in IL-13 compared to group B” value was 3 fold, the “fold reduction of IL-5 compared to untreated mice” value is 2.8 fold and the “reduction of IFN-γ levels compared to group B (in words)” value is on record as “reduced twofold”. Besides, in test [3] (setting [5]), the “Mean IFN-γ” value is listed as 1.38* pg/ml, the “Mean IL13” value is 17.90* pg/ml, the “Mean IL-4” value is 2.33** pg/ml and the “Mean IL-5” value was 6.00** pg/ml. Also, in test [3] (setting [7]), the “IFN-γ in lungs, individual mice” value is 1.62 pg/mL and 0.88 pg/mL and 0.94 pg/mL and 2.2 pg/mL and 0.81 pg/mL and 1.8 pg/mL; the “IL13 in lungs, individual mice” value is 20.35 pg/mL and 5.43 pg/mL and 9.93 pg/mL and 23.68 pg/mL and 21.99 pg/mL and 26.02 pg/mL; the “IL-4 in lungs, individual mice” value is 2.5 pg/ml and 1 pg/ml and 1.58 pg/ml and 3.48 pg/ml (2×) and 1.94 pg/ml; the “IL-5 in lungs, individual mice” value is 7.41 pg/mL and 1.06 pg/mL and 2.15 pg/mL and 9.23 pg/mL and 5.81 pg/mL and 10.33 pg/mL.

In the case of `CCCCCCCCCCCC(=O)O[C@H](CCCCCCCCCCC)CC(=O)N[C@H]1[C@H](OC[C@H]2O[C@H](OCC(O)CO)[C@H](NC(=O)C[C@H](O)CCCCCCCCCCC)[C@@H](O)[C@@H]2O)O[C@H](CO)[C@@H](OP(=O)(O)O)[C@@H]1O` (stereo partly drawn) [compound 19, 2,3-Dihydroxypropyl-2-Deoxy-6-O-[2-deoxy-4-O-(dihydroxyphosphoryl)-2-[(R)-3-dodecanoyloxytetradecanoylamino]-β-D-glucopyranosyl]-2-[(R)-3-hydroxytetradecanoylamino]-α-D-glucopyranoside], in test [2] (setting [4]), the “Eosino × 10^6, Mean ± SEM” value is 100411 ± 80738 × 10^6; the “Eosino × 10^6, individual mice” value was 33286 × 10^6 and 64010 × 10^6 and 47018 × 10^6 and 252294 × 10^6 and 82555 × 10^6 and 123305 × 10^6. The “times less BAL eosinophilia compared to positive asthmatic group (B)” value in test [2] (prophylactic) is given as “about 8 times”. Further, in test [3] (prophylactic), the “fold decrease of IL-4 in lungs compared to group B” value is recorded as 4 fold and the “fold reduction of IL-13 compared to asthmatic mice” value was 3 fold. Besides, in test [3] (prophylactic, i.p. 1 mg/Kg), the “Mean IL13” value is 16.62* pg/ml and the “Mean IL-4” value is on record as 2.09** pg/ml. Also, in test [3] (setting [6]), the “IL13 in lungs, individual mice” value is 12.08 pg/mL and 17.1 pg/mL and 8.59 pg/mL and 30.6 pg/mL and 16.14 pg/mL and 15.21 pg/mL; the “IL-4 in lungs, individual mice” value is 1.01 pg/mL and 1.47 pg/mL and 0.91 pg/mL and 5.68 pg/mL and 1.79 pg/mL and 1.66 pg/mL.

The values are drawn from patent US20100168054A1, “Functionalized Beta 1,6 Glucosamine Disaccharides and Process for Their Preparation” (OM PHARMA, priority 2006, published 2010).
